Reference: US6949571B2, “1,2-dihydropyridine compounds, process for preparation of the same and use thereof” (Eisai Co., Ltd., priority 2000, dated 2005)
pIC50: −log10 of the molar value. Read-outs that look alike come from different tables or passages of the source.

Test system: AMPA receptor
[1] = Table 2, suppression of AMPA-induced calcium influx into nerve cells
[2] = Table 1, primary culture of rat embryo cerebral cortex nerve cells, 2 μM AMPA, 1 μM MK-801
[3] = Table 3, primary culture of rat embryo cerebral cortex nerve cells, 2 μM AMPA, 1 μM MK-801
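Note: primary rat embryonic cortical neurons grown on an astrocyte layer in 96-well plates, used after at least 8 to 10 days in culture, Fura2-AM fluorescence ratio at 340/380 nm excitation.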

Description: Cerebral cortex was cut out from the brain of rat of gestational 18 days and treated with trypsin and DNase to disperse the cells. The cells were flown by MEM containing 10% of serum, sown in a culture bottle and astrocytes were proliferated. The astrocytes were re-dispersed by trypsin and sown in a 96-well plate. After incubation for one week, it was confirmed that the astrocytes covered all over the bottom and then the nerve cells of cerebral cortex which was dispersed by the above method were sown thereupon. After incubation for 24 hours, the medium was changed, the incubation was carried out for one week and, after that, the medium was changed to that containing 1 μM of MK-801. Nerve cells which were incubated for not shorter than 8 to 10 days were used.
Calcium influx into the cells was measured using Fura2-AM which was a calcium-sensitive fluorescent dye. It was treated in a medium containing Fura2-AM for 1 hour, incorporated into the cells, exchanged to a Tyrode solution containing 1 μM MK-801 and stimulation was carried out using 2 μM AMPA. Change in the amount of calcium flown into the cells were measured as the change in the fluorescent intensity at the exciting wave length of 340/380 nm.

Compound	pIC50 [1]	pIC50 [2]	also measured
N#Cc1ccccc1-c1cc(-c2ncccn2)cn(-c2cccc([N+](=O)[O-])c2)c1=O [Example 266, 3-(2-Cyanophenyl)-1-(3-nitrophenyl)-5-(2-pyrimidinyl)-1,2-dihydropyridin-2-one]	7.00	–	–
Cc1cccc(-c2cc(-c3ccccc3C#N)c(=O)n(-c3ccccc3)c2)n1 [Example 195, 3-(2-Cyanophenyl)-5-(6-methylpyridin-2-yl)-1-phenyl-1,2-dihydropyridin-2-one]	6.70	–	–
N#Cc1ccccc1-c1cc(-c2ccccn2)cn(-c2cccc3ccccc23)c1=O [Example 291, 3-(2-Cyanophenyl)-5-(2-pyridyl)-1-(1-naphthyl)-1,2-dihydropyridin-2-one]	6.85	–	–
COc1ccc(-n2cc(-c3ccccn3)cc(-c3ccccc3C#N)c2=O)cc1 [Example 95, 3-(2-Cyanophenyl)-5-(2-pyridyl)-1-(4-methoxyphenyl)-1,2-dihydropyridin-2-one]	–	6.52	–
O=c1c(-c2ccc(F)cc2)cc(-c2ccccn2)cn1-c1ccccc1 [Example 73, 3-(4-Fluorophenyl)-5-(2-pyridyl)-1-phenyl-1,2-dihydropyridin-2-one]	–	5.92	–
Cc1ccc(-n2cc(-c3ccccn3)cc(-c3ccccc3C#N)c2=O)cc1N [Example 222, 3-(2-Cyanophenyl)-5-(2-pyridyl)-1-(2-aminotoluen-4-yl)-1,2-dihydropyridin-2-one]	6.70	–	–
O=c1c(-c2nc3ccccc3n2-c2ccccc2)cc(-c2ccccn2)cn1-c1ccccc1 [Example 360, 3-(1-Phenylbenzimidazol-2-yl)-5-(2-pyridyl)-1-phenyl-1,2-dihydropyridin-2-one]	–	–	pIC50 [3]: 5.51
N#Cc1ccccc1-c1cc(-c2ccccn2)cn(Cc2ccccc2)c1=O [Example 31, 3-(2-Cyanophenyl)-5-(2-pyridyl)-1-benzyl-1,2-dihydropyridin-2-one]	–	7.00	–
O=c1c(-c2nccs2)cc(-c2ccccn2)cn1-c1ccccc1 [Example 255, 1-Phenyl-5-(2-pyridyl)-3-(2-thiazoyl)-1,2-dihydropyridin-2-one]	6.30	–	–
O=c1c(-c2ccc([N+](=O)[O-])cc2)cc(-c2ccccn2)cn1-c1ccccc1 [Example 275, 3-(4-Nitrophenyl)-1-phenyl-5-(2-pyridyl)-1,2-dihydropyridin-2-one]	5.21	–	–
CCCCNC(=O)Nc1ccc(-c2cc(-c3ccccn3)cn(-c3ccccc3)c2=O)cc1 [Example 308, 3-{4[N-(N′-butylureylenyl)phenyl]}-1-phenyl-5-(2-pyridyl)-1,2-dihydropyridin-2-one]	–	–	pIC50 [3]: 5.80
CCOC(=O)C=Cc1sccc1-c1cc(-c2ccccn2)cn(-c2ccccc2)c1=O [Example 398, 3-[(2-Ethoxycarbonyl)vinylthiophen-3-yl]-5-(2-pyridyl)-1-phenyl-1,2-dihydropyridin-2-one]	–	–	pIC50 [3]: 6.70
N#Cc1ccccc1-c1cc(-c2ccccn2)cn(-c2cccc(O)c2)c1=O [Example 315, 3-(2-Cyanophenyl)-1-(3-hydroxyphenyl)-5-(2-pyridyl)-1,2-dihydropyridin-2-one]	–	–	pIC50 [3]: 7.10
Cc1ccccc1-c1cc(-c2ccccn2)cn(-c2ccccc2)c1=O [Example 60, 3-(2-Tolyl)-5-(2-pyridyl)-1-phenyl-1,2-dihydropyridin-2-one]	–	5.77	–
COc1ncc(-c2ccccn2)cc1-c1ccccc1C#N [Example 5, 3-(2-Cyanophenyl)-5-(2-pyridyl)-2-methoxypyridine]	–	6.22	–
COc1ccncc1-n1cc(-c2ccccn2)cc(-c2cccnc2F)c1=O [Example 86, 3-(2-Fluoro-3-pyridyl)-5-(2-pyridyl)-1-(4-methoxy-3-pyridyl)-1,2-dihydropyridin-2-one]	–	5.72	–
N#Cc1ncccc1-c1cc(-c2ccccn2)cn(-c2cccnc2)c1=O [Example 294, 3-(2-Cyanopyridin-3-yl)-5-(2-pyridyl)-1-(3-pyridyl)-1,2-dihydropyridin-2-one]	6.22	–	–
N#Cc1ccccc1-c1cc(-c2ccccn2)c(=O)n(-c2ccccc2)c1 [Example 33, 3-(2-Pyridyl)-5-(2-cyanophenyl)-1-phenyl-1,2-dihydropyridin-2-one]	–	6.15	–
O=c1c(C=Cc2ccccn2)cc(-c2ccccn2)cn1-c1ccccc1 [Example 187, 3-(2-Pyridylethenyl)-5-(2-pyridyl)-1-phenyl-1,2-dihydropyridin-2-one]	5.21	–	–
CSc1ccc(-n2cc(-c3ccccn3)cc(-c3ccccc3C#N)c2=O)cc1 [Example 26, 3-(2-Cyanophenyl)-5-(2-pyridyl)-1-(4-methylthiophenyl)-1,2-dihydropyridin-2-one]	–	7.70	–
CC(=O)c1cccc(-n2cc(-c3ccccn3)cc(-c3ccccc3C#N)c2=O)c1 [Example 277, 1-(3-Acetylphenyl)-3-(2-cyanophenyl)-5-(2-pyridyl)-1,2-dihydropyridin-2-one]	6.22	–	–
CC1=NN=C(c2ccc(N)cc2)c2cc3c(cc2C1)OCO3 [GYKI 52466, reference compound]	–	–	pIC50 (control compound, same test, 2 μM AMPA): 5.04

Compound	pIC50 [1]	pIC50 [2]	also measured
O=c1c(-c2ccc(Cl)cc2Cl)cc(-c2ccccn2)cn1-c1cccnc1 [Example 131, 3-(2.4-Dichlorophenyl)-5-(2-pyridyl)-1-(3-pyridyl)-1,2-dihydropyridin-2-one]	–	5.43	–
O=c1c(-c2ccccc2Cl)cc(-c2ccccn2)cn1-c1ccc(F)cc1 [Example 99, 3-(2-Chlorophenyl)-5-(2-pyridyl)-1-(4-fluorophenyl)-1,2-dihydropyridin-2-one]	–	7.00	–
N#Cc1ccccc1-c1cc(-c2nc3ccccc3n2C2CCN(Cc3ccccc3)CC2)cn(-c2ccccc2)c1=O [Example 365, 3-(2-Cyanophenyl)-5-[1-(1-benzylpiperidin-4-yl)benzimidazol-2-yl]-1-phenyl-1,2-dihydropyridin-2-one]	–	–	pIC50 [3]: 5.57
CN(C)CCOc1ccc(-c2cc(-c3ccccn3)cn(-c3ccccc3)c2=O)cc1 [Example 248, 3-[4-(Dimethylaminoethoxy)phenyl]-1-phenyl-5-(2-pyridyl)-1,2-dihydropyridin-2-one]	5.47	–	–
O=c1c(-c2cscn2)cc(-c2ccccn2)cn1-c1ccccc1 [Example 267, 1-Phenyl-5-(2-pyridyl)-3-(thiazol-4-yl)-1,2-dihydropyridin-2-one]	6.00	–	–
CC(=O)Nc1cccc(-c2cc(-c3ccccn3)cn(-c3ccccc3)c2=O)c1 [Example 232, 3-[3-(Acetylamino)phenyl]-1-phenyl-5-(2-pyridyl)-1,2-dihydropyridin-2-one]	5.37	–	–
O=c1c(-c2cccnc2)cc(-c2ccccn2)cn1-c1ccccc1 [Example 67, 3-(3-Pyridyl)-5-(2-pyridyl)-1-phenyl-1,2-dihydropyridin-2-one]	–	5.19	–
N#Cc1ccccc1-c1cc(-c2ccccn2)cn(-c2cccc(C=O)c2)c1=O [Example 20, 3-(2-Cyanophenyl)-5-(2-pyridyl)-1-(3-formylphenyl)-1,2-dihydropyridin-2-one]	–	7.40	–
N#Cc1ccccc1-c1cc(-c2ccccn2)cn(-c2cccc(OC3CCNCC3)c2)c1=O [Example 330, 3-(2-Cyanophenyl)-1-[3-(4-piperidyloxy)]phenyl-5-(2-pyridyl)-1,2-dihydropyridin-2-one]	–	–	pIC50 [3]: 6.40
Cc1ccc(-c2ccccc2)n1-c1cc(-c2ccccn2)cn(-c2ccccc2)c1=O [Example 327, 3-(2-Methyl-5-phenylpyrrol-1-yl)-5-(2-pyridyl)-1-phenyl-1,2-dihydropyridin-2-one]	–	–	pIC50 [3]: 5.10
O=c1c(C2C3CC4CC(C3)CC2C4)cc(-c2ccccn2)cn1-c1ccccc1 (stereo not shown) [Example 387, 3-(2-Adamantyl)-5-(2-pyridyl)-1-phenyl-1,2-dihydropyridin-2-one]	–	–	pIC50 [3]: 5.15
COc1ccc(-c2cc(-c3ccccc3C#N)c(=O)n(-c3ccccc3)c2)cn1 [Example 200, 3-(2-Cyanophenyl)-5-(2-methoxypyridin-5-yl)-1-phenyl-1,2-dihydropyridin-2-one]	5.70	–	–
Cc1ccc(C)n1-c1cccc(-c2cc(-c3ccccc3C#N)c(=O)n(-c3ccccc3)c2)n1 [Example 297, 3-(2-Cyanophenyl)-5-[2-(2,6-dimethylpvrrol-1-yl)pyridin-6-yl]-1-phenyl-1,2-dihydropyridin-2-one]	5.38	–	–
CN(C)CCOc1cccc(-n2cc(-c3ccccn3)cc(-c3ccccc3Cl)c2=O)c1 [Example 144, 3-(2-Chlorophenyl)-5-(2-pyridyl)-1-(3-dimethylaminoethoxyphenyl)-1,2-dihydropyridin-2-one]	8.00	–	–
N#Cc1ccccc1-c1cc(-c2ccccc2)cn(-c2ccccn2)c1=O [Example 39, 3-(2-Cyanophenyl)-5-phenyl-1-(2-pyridyl)-1,2-dihydropyridin-2-one]	–	6.52	–
N#Cc1ccccc1-c1cc(-c2ccccn2)cn(-c2cccc(F)c2)c1=O [Example 92, 3-(2-Cyanophenyl)-5-(2-pyridyl)-1-(3-fluorophenyl)-1,2-dihydropyridin-2-one]	–	7.30	–
N#Cc1ccccc1-c1cc(-c2cccc(Br)n2)cn(-c2ccccc2)c1=O [Example 300, 5-(2-Bromopyridin-6-yl)-3-(2-cyanophenyl)-1-phenyl-1,2-dihydropyridin-2-one]	6.52	–	–
COc1ccc(-c2cc(-c3ccccn3)cn(-c3ccccc3)c2=O)cc1 [Example 70, 3-(4-Methoxyphenyl)-5-(2-pyridyl)-1-phenyl-1,2-dihydropyridin-2-one]	–	5.51	–
O=c1c(-c2nc3ccccc3s2)cc(-c2ccccn2)cn1-c1ccccc1 [Example 371, 3-(2-Benzothiazolyl)-5-(2-pyridyl)-1-phenyl-1,2-dihydropyridin-2-one]	–	–	pIC50 [3]: 6.22
O=c1c(-c2cccc(O)c2)cc(-c2ccccn2)cn1-c1ccccc1 [Example 237, 3-(3-Hydroxyphenyl)-1-phenyl-5-(2-pyridyl)-1,2-dihydropyridin-2-one]	5.82	–	–
N#Cc1ccccc1-c1cc(-c2ccc3ccccc3c2)cn(-c2cccnc2)c1=O [Example 211, 3-(2-Cyanophenyl)-5-(2-naphthyl)-1-(3-pyridyl)-1,2-dihydropyridin-2-one]	5.44	–	–
